Measurements taken from patent US9206226B2, “Non-ionic acid-labile surfactants and methods of use” (Protea Biosciences, Inc., priority 2011, dated 2015).

Biological target: bovine serum albumin (BSA) (Bos taurus, UniProt P02769)
Assay: MALDI-TOF mass spectra of BSA with surfactant, intact and acid-degraded
Details: for BSA MALDI signal after surfactant degradation: degraded about 30 minutes in 1% TFA at pH 2.5
Text: The various embodiments of non-ionic acid-labile surfactants and methods of use described herein may be better understood when read in conjunction with the following representative examples. The following examples are included for purposes of illustration and not limitation. MALDI-TOF spectra were acquired using an ABI 4800 mass spectrometer in the linear mode.
Referring to FIGS. 2A-C, 0.1% N-[2,2-Bis(pentyloxy)propan-1-aminocarbonyl]-β-maltosylamine was mixed with bovine serum albumin (BSA) in water. The samples were spotted onto a MALDI pre-spotted target with CHCA MALDI matrix using C8 reversed phase tips. FIG. 2A includes a mass spectra of 20 pmol BSA in water. BSA was detected at m/z 22344, m/z 33480, and m/z 66854. FIG. 2B includes a mass spectra of 20 pmol BSA dissolved in 0.1% N-[2,2-Bis(pentyloxy)propan-1-aminocarbonyl]-β-maltosylamine. […] FIG. 2C includes a mass spectra of 20 pmol BSA in 0.1% N-[2,2-Bis(pentyloxy)propan-1-aminocarbonyl]-β-maltosylamine after being degraded for about thirty (30) minutes in 1% TFA at pH 2.5. BSA was detected at m/z 22212, m/z 33309, and m/z 66460.
Referring to FIGS. 3A-C, 1% N-[2,2-Bis(pentyloxy)propan-1-aminocarbonyl]-β-maltosylamine was mixed with bovine serum albumin (BSA) in water. The samples were spotted onto a MALDI pre-spotted target with CHCA MALDI matrix using C8 reversed phase tips. FIG. 3A includes a mass spectra of 20 pmol BSA in water. BSA was detected at m/z 22344, m/z 33480, and m/z 66854. FIG. 3B includes a mass spectra of 20 pmol BSA dissolved in 1% N-[2,2-Bis(pentyloxy)propan-1-aminocarbonyl]-β-maltosylamine. […] FIG. 3C includes a mass spectra of 20 pmol BSA in 1% N-[2,2-Bis(pentyloxy)propan-1-aminocarbonyl]-β-maltosylamine after being degraded for about thirty (30) minutes in 1% TFA at pH 2.5. BSA was detected at m/z 22260, m/z 33377, and m/z 66527.
Referring to FIGS. 5A-C, 0.1% N-[2,2-Bis(hexyloxy)propan-1-aminocarbonyl]-β-maltosylamine was mixed with BSA. The samples were spotted onto a MALDI pre-spotted target with CHCA MALDI matrix using C8 reversed phase tips. FIG. 5A includes a mass spectra of 20 pmol BSA in water. BSA was detected at m/z 22344, m/z 33480, and m/z 66854. FIG. 5B includes a mass spectra of 20 pmol BSA dissolved in 0.1% N-[2,2-Bis(hexyloxy)propan-1-aminocarbonyl]-β-maltosylamine. […] FIG. 5C includes a mass spectra of 20 pmol BSA in 0.1% N-[2,2-Bis(phexyloxy)propan-1-aminocarbonyl]-β-maltosylamine after being degraded for about thirty (30) minutes in 1% TFA at pH 2.5. BSA was detected at m/z 22197, m/z 33284, and m/z 66405.

[1] = 20 pmol BSA dissolved in 0.1% surfactant

Sequence of bovine serum albumin (BSA) (P02769 25-607): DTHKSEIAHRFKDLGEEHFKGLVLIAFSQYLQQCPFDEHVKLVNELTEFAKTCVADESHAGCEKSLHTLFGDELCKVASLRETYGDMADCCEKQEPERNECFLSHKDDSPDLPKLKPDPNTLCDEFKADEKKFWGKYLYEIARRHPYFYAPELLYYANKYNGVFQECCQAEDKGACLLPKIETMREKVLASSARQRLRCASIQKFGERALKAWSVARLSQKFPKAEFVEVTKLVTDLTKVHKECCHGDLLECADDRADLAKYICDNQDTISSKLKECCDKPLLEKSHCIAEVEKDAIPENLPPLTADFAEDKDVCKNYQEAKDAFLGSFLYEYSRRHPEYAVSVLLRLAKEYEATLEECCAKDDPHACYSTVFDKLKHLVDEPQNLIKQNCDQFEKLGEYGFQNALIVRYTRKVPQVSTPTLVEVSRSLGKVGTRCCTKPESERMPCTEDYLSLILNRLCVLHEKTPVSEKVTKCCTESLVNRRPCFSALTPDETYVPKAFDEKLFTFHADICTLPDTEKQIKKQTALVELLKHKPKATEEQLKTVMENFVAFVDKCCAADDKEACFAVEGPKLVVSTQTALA

Row | SMILES | BSA MALDI signal, intact surfactant [1] | BSA MALDI signal, intact surfactant (20 pmol BSA dissolved in 1% surfactant) | BSA MALDI signal after surfactant degradation (0.1% surfactant) | BSA MALDI signal after surfactant degradation (1% surfactant)
1 | CCCCCOC(C)(CNC(=O)NC1OC(CO)C(OC2OC(CO)C(O)C(O)C2O)C(O)C1O)OCCCCC (stereo not drawn) [N-[2,2-Bis(pentyloxy)propan-1-aminocarbonyl]-β-maltosylamine] | no signal from the BSA was detected | no signal from the BSA was detected | a signal from the BSA was detected when the surfactant was degraded | a signal from the BSA was detected when the surfactant was degraded
2 | CCCCCCOC(C)(CNC(=O)NC1OC(CO)C(OC2OC(CO)C(O)C(O)C2O)C(O)C1O)OCCCCCC (stereo not drawn) [N-[2,2-Bis(hexyloxy)propan-1-aminocarbonyl]-β-maltosylamine] | no signal from the BSA was detected |  | a signal from the BSA was detected when the surfactant was degraded | 
